Results reported in US11008323B2, “Substituted tricyclic 1,4-benzodiazepinone derivatives as allosteric modulators of group II metabotropic glutamate receptors” (Domain Therapeutics, priority 2015, dated 2021).

Columns and labels:
[1] = test system: cortical primary neurons; assay: NMDA-induced neurotoxicity assay on cortical primary neurons (MTT test); assay type: cell-based, mouse; settings: 24 hours
Method: Primary mouse neurons were incubated with vehicle or NMDA (60 μM)+vehicle or example 207 or LY379268 (mixed mGluR2/3 agonist used as positive control) for 24 hours. Tests were performed in triplicate. Neuron viability was measured using a MTT test.

[2] = test system: striatal primary neurons; assay: NMDA-induced neurotoxicity assay on striatal primary neurons (MTT test); assay type: cell-based, mouse; settings: 24 hours
Method: Primary mouse neurons were incubated with vehicle or NMDA (60 μM)+vehicle or example 63 or LY379268 (mixed mGluR2/3 agonist used as positive control) for 24 hours. Tests were performed in triplicate. Neuron viability was measured using a MTT test.

[3] = biological target: T1, human mGluR3 (hmGluR3) (Homo sapiens, UniProt Q14832); assay: Human mGluR3 positive allosteric modulator evaluation using Ca++ functional assay; assay type: cell-based; settings: hmGluR3 transiently over-expressed in HEK-293 cells; stimulated by EC50 glutamate concentration; intracellular Ca2+ (Fluo4AM, FLIPR Tetra)
T1 construct: expressed in transfected cells; host or cells: HEK-293 cells, transient co-transfection by electroporation
T1 sequence (Q14832 23-879): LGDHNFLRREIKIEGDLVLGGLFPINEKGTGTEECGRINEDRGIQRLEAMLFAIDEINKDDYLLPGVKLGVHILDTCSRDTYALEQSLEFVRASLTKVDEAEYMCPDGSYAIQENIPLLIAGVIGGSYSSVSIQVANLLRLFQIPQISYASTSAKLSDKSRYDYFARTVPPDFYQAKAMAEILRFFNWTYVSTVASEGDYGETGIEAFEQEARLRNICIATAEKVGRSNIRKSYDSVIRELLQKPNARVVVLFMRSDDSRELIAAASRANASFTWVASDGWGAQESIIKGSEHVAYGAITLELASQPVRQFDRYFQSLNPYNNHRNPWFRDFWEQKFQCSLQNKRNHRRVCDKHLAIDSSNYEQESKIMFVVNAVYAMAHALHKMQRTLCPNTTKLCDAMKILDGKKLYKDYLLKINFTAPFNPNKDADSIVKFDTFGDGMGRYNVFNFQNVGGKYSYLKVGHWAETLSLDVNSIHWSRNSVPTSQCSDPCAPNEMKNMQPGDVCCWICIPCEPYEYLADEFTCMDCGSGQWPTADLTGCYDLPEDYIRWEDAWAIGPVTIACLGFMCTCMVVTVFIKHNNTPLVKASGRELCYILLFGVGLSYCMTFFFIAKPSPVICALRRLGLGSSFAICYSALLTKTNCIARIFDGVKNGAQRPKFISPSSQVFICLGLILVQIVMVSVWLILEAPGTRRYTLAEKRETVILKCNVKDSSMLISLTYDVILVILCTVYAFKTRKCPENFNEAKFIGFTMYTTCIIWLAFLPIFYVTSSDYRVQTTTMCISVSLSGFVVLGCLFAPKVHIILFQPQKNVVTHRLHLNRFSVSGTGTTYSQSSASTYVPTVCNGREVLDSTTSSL
How it was run: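 Calcium flux (Fluo4, ex 485/em 525 nm) recorded first 10 min with compound alone, then 3 min after an EC50 glutamate challenge, giving agonist and PAM EC50 from 20-concentration sigmoidal fits. Receptor was transiently co-transfected in HEK-293 with chimeric G protein and glutamate transporters.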

[4] = alone, in absence of NMDA challenge, 30 nM to 30 μM

Row | Compound | EC50 [3] | melting point | other results
1 | CN[C@H](CC(=O)O)C(=O)O [NMDA, N-methyl-D-aspartate] |  |  | reduction of the neuron viability, cortical primary neurons ([1]; NMDA 60 μM + vehicle): ~50%; reduction of the neuron viability, striatal primary neurons ([2]; NMDA 60 μM + vehicle): ~70%
2 | COCc1cc2n(c1)-c1cc(-c3ccc(F)nc3)ccc1C1(CC1)N(C)C2=O [Example 207] | < 100 nM | 71 to 80 °C | toxicity induced by NMDA (neuroprotection), cortical primary neurons ([1]; NMDA 60 μM, effect tending to disappear at higher concentrations): reduces in a dose-dependent manner the toxicity induced by NMDA up to 1 μM; toxicity on cortical primary neuron viability [1, 4]: no toxicity
3 | N[C@@]1(C(=O)O)CO[C@H]2[C@H](C(=O)O)[C@H]21 [LY379268] |  |  | NMDA-induced toxicity, cortical primary neurons ([1]; at 1 μM, NMDA 60 μM): decreases NMDA-induced toxicity; toxicity alone, cortical primary neurons ([1]; reference alone): no toxicity alone; NMDA-induced toxicity, striatal primary neurons ([2]; at 1 μM, NMDA 60 μM): decreases NMDA-induced toxicity; toxicity alone, striatal primary neurons ([2]; reference alone): no toxicity alone
4 | CN1C(=O)c2cccn2-c2cc(-c3ccc(F)cn3)ccc2C12CC2 [Example 63, 5-Methyl-9-(5-fluoropyridin-2-yl)-spiro[benzo[f]pyrrolo[1,2-a][1,4]diazepine-6,1′-cyclopropan]-4(5H)-one] | < 100 nM | 148 to 156 °C | toxicity induced by NMDA (neuroprotection), striatal primary neurons ([2]; NMDA 60 μM, effect tending to disappear at 30 μM): reduces in a dose-dependent manner the toxicity induced by NMDA up to 10 μM; toxicity on striatal primary neuron viability [2, 4]: no toxicity
5 | [2H]C([2H])([2H])N1C(=O)c2cccn2-c2cc(-c3ccc(F)cn3)ccc2C12CC2 [Example 64, 5-(Methyl-d3)-9-(5-fluoropyridin-2-yl)-spiro[benzo[f]pyrrolo[1,2-a][1,4]diazepine-6,1′-cyclopropan]-4(5H)-one] | < 100 nM | 138 to 142 °C | 
6 | CN1C(=O)c2cccn2-c2cc(-c3ccc(C(F)(F)F)cn3)ccc2C12CC2 [Example 69, 5-Methyl-9-(5-trifluoromethylpyridin-2-yl)-spiro[benzo[f]pyrrolo[1,2-a][1,4]diazepine-6,1′-cyclopropan]-4(5H)-one] | 100 to 1000 nM | 78 to 89 °C | 
7 | Cc1ncccc1-c1ccc2c(c1)-n1cc(C(=O)O)cc1C(=O)N(C)C21CC1 [Example 176, 5-Methyl-9-(2-methylpyridin-3-yl)-4-oxo-4,5-dihydrospiro[benzo[f]pyrrolo[1,2-a][1,4]diazepine-6,1′-cyclopropane]-2-carboxylic acid] | 100 to 1000 nM | > 250 °C | 
